This is an account of results in patent publication US12398122B2, “Resolvin analogs compounds, methods and uses thereof” (VALORISATION RECHERCHE HSCM, LIMITED PARTNERSHIP, priority 2022, dated 2025).

One data set concerns Raw264.7 macrophages. As to the kind of experiment: Cell viability (MTS) assay, cytotoxicity in Raw 264.7 macrophages. The following applies: Raw264.7 macrophages, 0, 0.1, 0.25, 0.5 and 1 μM, 24 h incubation. The format is cell-based, mouse. The protocol: Murine macrophage RAW 264.7 (ATCC, Manassas, VA, USA) were cultured with AMEM/10% FBS and antibiotics at 37° C. in a humidified atmosphere with 5% CO2. Primary human monocytes were isolated from whole blood obtained from healthy volunteers. Briefly, blood was centrifuged on a Ficoll-Paque density gradient, according to the manufacturer's recommendations. Isolated monocytes were then cultured in RPMI 1640 medium supplemented with 10% FBS, and antibiotics. All donors provided written, informed consent for the use of their blood for research purposes. Experimental protocols were approved by the Research Ethics Board of the “[…] du Sacré-Coeur de Montreal”. Raw264.7 cells were treated for 24 hours with increasing concentrations of compounds I-1 and I-2 (0, 0,1, 0,25, 0,5, and 1 μM). Cell viability was assessed with MTS assay kit (Promega Corporation, Madison, WI, USA), as described by the manufacturer. Absorbance was measured with the micro-ELISA Vmax photometer (Bio-Tek Instruments, Winooski, VT, USA). Cell viability was evaluated by 3-(4,5-dimethyl-thiazoyl)-2,5-diphenyl-SH-tetrazolium bromide assay. ANOVA test was performed to compare the results. Results are expressed as mean±SEM for n=3. This part of the experiment was designed to test the cytotoxic effect of compounds 1-1 and 1-2 on mouse Raw264.7 macrophages. […]

The subject of a further data set is MMP-13. As to the kind of experiment: Inhibition of MMP-13 production in human OA chondrocytes. The format is cell-based. The following applies: Chondrocyte, IL-1β 1 ng/ml one hour then compound 24 hours. How it is done:
The effect of RvD1 analogs on the expression of MMP-13, a key enzyme involved in the degradation of OA cartilage, was investigated. Chondrocytes from human osteoarthritic cartilage were treated with IL-1β (1 ng/ml) for one hour followed by another treatment with RvD1 and its analogues for 24 hours.

A short description of data set [1]: Ultraviolet-induced hyaluronic acid (HA) degradation. The following applies: 1 μM, HA 1 mg/ml in PBS, UV for 4 hours (n=3). The protocol:
In order to study the protective effect of RvD1 and its analogs on the stability of hyaluronic acid (HA), a solution of commercial HA was prepared in PBS at a concentration of 1 mg/ml, then exposed to Ultraviolet rays (UV) for 4 hours in the presence or absence of RvD1 and compounds I-1 and I-2 at a dose of 1 μM. 20 μg of HA were loaded into an agarose gel (1% prepared in TBE buffer). After 4 hours of migration at 40 volts, the HA was visualized after staining with Stains-All dissolved in 30% ethanol.

The subject of data set [2] is human isolated monocytes/macrophages-RANKL/M-CSF-derived osteoclasts. As to the kind of experiment: TRAP staining, osteoclast differentiation of RANKL/M-CSF-treated human monocytes. The format is cell-based. The following applies: 500 nM, 14 days, 50 ng/ml RANKL and 10 ng/ml M-CSF. The protocol:
(§1) Murine macrophage RAW 264.7 (ATCC, Manassas, VA, USA) were cultured with AMEM/10% FBS and antibiotics at 37° C. in a humidified atmosphere with 5% CO2. Primary human monocytes were isolated from whole blood obtained from healthy volunteers. Briefly, blood was centrifuged on a Ficoll-Paque density gradient, according to the manufacturer's recommendations. Isolated monocytes were then cultured in RPMI 1640 medium supplemented with 10% FBS, and antibiotics. All donors provided written, informed consent for the use of their blood for research purposes. Experimental protocols were approved by the Research Ethics Board of the “Hôpital du Sacré-Coeur de Montreal”.
Isolated human monocytes were isolated as described previously, seeded in chambered cell culture slides at 8×10^4 cells/well, and treated with 50 ng/ml RANKL and 10 ng/ml M-CSF in the presence or absence of 500 nM of compounds I-1 and I-2 for 14 days. Culture medium was changed every 3 days. TRAP staining performed as recommended by the manufacturer. […] Results are shown in FIG. 3, where arrows show osteoclasts with three nuclei or more (b). R=RANKL; M=M-CSF.
Here, the impact of RvD1 analogues treatment on human isolated monocytes/macrophages-RANKL/M-CSF-derived osteoclasts was eveluated, by measuring their phenotypic markers, namely TRAP. […]

The subject of another data set is human OA chondrocytes. As to the kind of experiment: Reactive oxygen species (ROS) production in human OA chondrocytes (DCFH-DA probe). The format is cell-based. The following applies: 1 μM, 0.5 mM H2O2 for 2 hours. The protocol: In a second step, the study was continued to explore the antioxidant effect of RvD1 and compounds I-1 and I-2 in a cell medium. Thus, human OA chondrocytes with osteoarthritis were seeded in black plates at a rate of 5×10^4 cells per well in 10% FBS DMEM medium (phenol red free) and incubated for 24 h at 37° C., and then treated with 0.5 mM H2O2 for 2 hours in the presence or absence of RvD1 and the compounds I-1 and I-2 at a concentration of 1 μM. The generation of ROS was measured by the addition of 10 μM of the DCFH-DA probe and fluorescence was measured using a microplate reader with Fluorescence Polarization (Polar Star Optima, BMG Labtech) set up at ex. 485 nm and em. 530 nm.

Data set [3] in a line: H2O2-induced hyaluronic acid fragmentation (agarose gel, Stains-All). The following applies: HA 1 mg/ml, pretreated 1 hour at 1 or 10 μM, then 1 mM H2O2 for 4 hours; preliminary data. The protocol:
Commercial hyaluronic acid was solubilised in sterilized PBS (1 mg/ml) during overnight under gentile shaking. The solution was pretreated with N-acetyl-Cysteine (NAC), RvD1, compounds I-1 and I-2 at 1 or 10 μM for 1 hour and then treated with 1 mM H2O2 during 4 hours. Samples were mixed in loading buffer containing 1M sucrose and loaded in 1% agarose/1× Tris-borate-EDTA (TBE) and pre-run the gel for 6 hours at 40V in 1× TBE buffer. The gel was then equilibrated with 30% ethanol in water and stained with Stains-All solution containing 0.1 mg Stains-All and 30% ethanol for overnight in the dark. Next, the gel was equilibrated in water for 1 hour and then exposed to light for destaining. Finally, hyaluronic acid was visualized using Alpha Imager under light transillumination. Results are shown in FIG. 4, where arrows show hyaluronic acid fragments (n=2), Al=I-1; A2=I-2.
This part of experiments was designed to investigate the ability of RvD1 analogues to protect hyaluronic acid against H2O2-induced degradation (antioxidant effect). To do so, the polymer at 1 mg/ml was pretreated by RvD1 and their analogues for 1 hour and then after treated with 1 mM H2O2 for 4 hours.

For data set [4], the system named is human monocyte-derived osteoclasts. As to the kind of experiment: Hydroxyapatite matrix resorption by human monocyte-derived osteoclasts (von Kossa staining). The following applies: 500 nM, M-CSF/RANKL-differentiated cells, p<0.01 (n=3). The format is cell-based. The source says: The effect of RvD1 analogs on the resorption activity of human monocyte-derived osteoclasts was investigated. Results were obtained as described in Benabdoun et al. 2019 and are shown in FIG. 10, where data were expressed as % resorption area/osteoclast with three nuclei or more (n=3).

The subject of data set [5] is osteoclasts from monocytes of peripheral blood of healthy donors. As to the kind of experiment: Osteoclast recruitment: differentiation of peripheral blood monocytes into osteoclasts (TRAP-positive cells). The format is cell-based, human. The following applies: 500 ng, 14 days, 50 ng/ml RANKL + 10 ng/ml M-CSF, 2×10^5 monocytes/chamber (n=3). How it is done: The effect of RvD1 analogs on the differentiation of macrophages into osteoclasts was investigated. Monocytes from peripheral blood of healthy donors were cultured in culture chambers at 2×10^5 monocytes/chamber in the presence of 50 ng/ml RANKL+10 ng/ml M-CSF for 14 days, in the presence or absence of 500 ng of compounds I-1 and I-2 (n=3).

Data set [6] in a line: Reactive oxygen species (ROS) production in acellular environment (DCFH-DA probe). The following applies: 1 μM, ROS generated with CuCl2 (1 mM) and H2O2 (1 mM) for 10 min. How it is done: ROS were generated by incubating in black 96-well plate with CuCl2 (1 mM) with H2O2 (1 mM) for 10 min. Subsequently, RvD1, I-1 and I-2 at 1 μM were added before the addition of the DCFH-DA probe.

Data set [7] relates to COX-2. As to the kind of experiment: COX-2 expression in human OA chondrocytes by Western blot. The following applies: 10 μM, 1 hour then IL-1β 1 ng/ml for 24 hours. The format is cell-based. The protocol: Cells were seeded in 24-well flat plates at a confluence of 5×10^5 cells per well in 10% FBS DMEM medium and incubated for 24 h at 37° C. Then, the cells were treated with I-1 at different doses (0-10 μM) for 1 hour followed by a second treatment with IL-1β for 24 hours (1 ng/ml). COX-2 expression was assessed by Western blot by specific anti-COX-2 antibody.
On the technique in general: In western blotting, separated proteins are transferred to a membrane and probed.

In the next data set the test system is TNFα. As to the kind of experiment: Inhibition of IL-1β-induced TNFα production in Raw264.7. The format is cell-based, mouse. The following applies: Raw264.7, 1 μM, pretreated 1 h then 1 ng/ml IL-1β for 24 h, compared to IL-1β alone. The protocol: as §1
It is well-documented that the RvD1 is considered as a potent anti-inflammatory mediator. Thus, the purpose of this part of the present study was to investigate whether compounds I-1 and I-2's capacity to inhibit pro-inflammatory cytokines, such as TNFα. To do so, Raw264.7 were pretreated with compounds I-1 and I-2 at different concentrations (0, 0.1, 0.5, and 1-μM) for 1h, followed by exposure to 1 ng/ml IL-1β for 24 h. […] As such, it may be concluded that compounds I-1 and I-2 inhibit TNFα production.

The subject of data set [8] is COX-2. As to the kind of experiment: COX-2 protein expression by Western blotting in Raw264.7 macrophages. The format is cell-based, mouse. The following applies: Raw264.7 macrophages, 0, 0.25, 0.5, 1 μM for 1 hour, then 1 ng/ml IL-1β for 24 hours (n=2). How it is done: 20 μg of total proteins of Raw264.7 macrophages lysates, treated under the indicated conditions, were loaded for discontinuous 4-12% sodium dodecyl sulfate-polyacrylamide gel electrophoresis. They were then transferred electrophoretically onto nitrocellulose membranes (Bio-Rad Laboratories, Mississauga, ON, Canada) for protein immunodetection and semi-quantitative measurement. The primary antibodies deployed were rabbit anti-COX-2 (Cayman Chemical Company) and mouse anti-β-actine (Sigma). […] Immunoreactive proteins were detected with SuperSignal blotting substrate (Pierce, Rockford, IL) and exposed to Kodak X-Omat™ film (Eastman Kodak Company, Rochester, NY).
Here, the hypothesis whether RvD1 analogues have the ability to modulate COX-2 protein expression was tested. Raw264.7 macrophages were pretreated with increasing doses of compound I-2 (0, 0.25, 0.5, 1-μM) for 1 hour and treated then after with 1 ng/ml IL-1β for 24 hours.

For orientation: inhibition means the drop in the measured response relative to a control, in per cent. Lower therefore signals little suppression. Turning to `CCCCC[C@H](O)c1c(/C=C/[C@@H](O)[C@@H](O)C/C=C\CCC(=O)OC)nc(C)n1C` [I-1, methyl (4Z,7S,8R,9E)-7,8-dihydroxy-10-(5-((S)-1-hydroxyhexyl)-1,2-dimethyl-1H-imidazol-4-yl)deca-4,9-dienoate], the cell viability entry in the data set with Raw264.7 macrophages is “did not alter the cell viability”. The same compound registered an inhibition at 20 µM in the data set with MMP-13 of about 20%. In addition, in [1], the “HA degradation by UV exposure” value is recorded as “prevents HA degradation by UV exposure”. The “osteoclasts differentiation (TRAP)” value in data set [2] is listed as “strongly prevent osteoclasts differentiation”. In the data set with human OA chondrocytes, the “generation of ROS by chondrocytes” value is “significantly reduced the generation of ROS”. In addition, the “H2O2-induced hyaluronic acid fragmentation” value in [3] is “prevent H2O2-induced fragmentation”. In addition, in data set [4], the “erosion of the hydroxyapatite matrix (% resorption area/osteoclast)” value is listed as “significantly reduced erosion of the hydroxyapatite matrix to almost control level”. In addition, the “formation of osteoclasts (3 or more nuclei)” value in data set [5] is listed as “inhibited the formation of large osteoclasts”. Moreover, the “level of ROS in acellular medium” value in data set [6] is “level of ROS decreases”. Moreover, in the data set on COX-2 [7], the COX-2 expression result is listed as “reduces COX-2 expression”. In addition, the “reduction of TNFα level” value in the data set on TNFα is reported as 40%.
In the data set on MMP-13 (10 μM), `CC/C=C\C[C@H](O)/C=C/C=C\C=C\C=C\[C@@H](O)[C@@H](O)C/C=C\CCC(=O)O` [RvD1, 7S,8R,17S-trihydroxy-4Z,9E, 11E,13Z,15E,19Z-docosahexaenoic acid, reference compound] registered an inhibition at 10 µM of about 20%. In addition, the “HA degradation by UV exposure” value in data set [1] is reported as “prevents HA degradation by UV exposure”. For the same compound, the “generation of ROS by chondrocytes” value with human OA chondrocytes is “significantly reduced the generation of ROS”. Also, the “H2O2-induced hyaluronic acid fragmentation” value in data set [3] is reported as “prevent H2O2-induced fragmentation”. For the same compound, the “level of ROS in acellular medium” value in [6] is “level of ROS decreases”.
As to `CCCCC[C@H](O)c1c(/C=C/[C@@H](O)[C@@H](O)C/C=C\CCC(=O)O)nc(C)n1C` [I-2, (4Z,7S,8R,9E)-7,8-dihydroxy-10-(5-((S)-1-hydroxyhexyl)-1,2-dimethyl-1H-imidazol-4-yl)deca-4,9-dienoic acid], the cell viability result in the data set with Raw264.7 macrophages is recorded as “did not alter the cell viability”. In addition, the inhibition at 20 µM with MMP-13 is about 20%. Besides, the “IL-1β-induced COX-2 protein expression” value in the data set on COX-2 [8] was “reduced IL-1β-induced COX-2 protein expression”. In data set [1], the “HA degradation by UV exposure” value is given as “prevents HA degradation by UV exposure”. The “osteoclasts differentiation (TRAP)” value in data set [2] is recorded as “strongly prevent osteoclasts differentiation”. The “generation of ROS by chondrocytes” value in the data set on human OA chondrocytes was “significantly reduced the generation of ROS”. In addition, in [3], the “H2O2-induced hyaluronic acid fragmentation” value is listed as “prevent H2O2-induced fragmentation”. In addition, the “erosion of the hydroxyapatite matrix (% resorption area/osteoclast)” value in data set [4] is “significantly reduced erosion of the hydroxyapatite matrix to almost control level”. Also, in data set [5], the “formation of osteoclasts (3 or more nuclei)” value is “inhibited the formation of large osteoclasts”. For the same compound, the “level of ROS in acellular medium” value in data set [6] is given as “level of ROS decreases”. For the same compound, in the data set on TNFα, the “reduction of TNFα level” value is reported as 40%.
